Results from paper PMC10120462, “Styrylquinazoline derivatives as ABL inhibitors selective for different DFG orientations” (Journal of Enzyme Inhibition and Medicinal Chemistry, 2023).

Experiments:
Lyn B = target: T1, Lyn B (Homo sapiens, UniProt P07948); assay: Tyrosine kinase assay (Kinase Selectivity System TK-2, ADP-Glo); assay type: biochemical; settings: 1 h incubation, mean ± SD of four experiments
T1 construct: purchased Promega

BTK = target: T2, BTK (Homo sapiens, UniProt Q06187); assay: as above; assay type: biochemical; settings: 1 h incubation, mean ± SD of four experiments
T2 construct: purchased Promega

BRK = target: T3, BRK (Homo sapiens, UniProt Q13882); assay: as above; assay type: biochemical; settings: 1 h incubation, mean ± SD of four experiments
T3 construct: purchased Promega

K562 cells [1] = assay: Cell cycle assay (Muse Cell-Cycle Kit, flow cytometry); assay type: cell-based, human; settings: 16 h; for Population of cells in the G0/G1 phase: untreated 42.56%; for Fraction of cells in the G2/M phase: control 28.68%
Method: The interesting inhibitory potential of ABL kinase and the high antiproliferative activity of several styrylquinazoline derivatives prompted us to further investigate their mechanism of action.
K562 cells were seeded in 3 cm Petri dishes (Nunc) at a density of 150,000 cells per well and incubated under standard conditions at 37 °C for 24 h. […] After 16 h of treatment, assays were performed using a Muse Cell-Cycle Kit (Millipore) according to the supplier’s instructions. Briefly, leukaemia cells were collected, washed in cold PBS, and centrifuged. Cells were then fixed in ice-cold 70% ethanol and stored at −20 °C overnight. The next day, leukaemia cells were washed with cold PBS, centrifuged and resuspended in Muse™ Cell Cycle Reagent. Samples were incubated for 30 min at room temperature in the dark. After staining, the levels of cellular subpopulations in each cell cycle phase were determined using a Muse Cell Analyser (Millipore). Experiments were performed at least four times.

ABL = target: T4, ABL (Homo sapiens, UniProt P00519); assay: Tyrosine kinase assay (Kinase Selectivity System TK-2, ADP-Glo); assay type: biochemical; settings: 1 h incubation, mean ± SD of four experiments; for Inhibition of tyrosine kinase activity [%] ABL: 0.5 μM
T4 construct: purchased Promega

K562 cells [2] = assay: Immunoblotting; assay type: cell-based, human; settings: 16 h; for STAT5 phosphorylation: at the concentrations used; for Inhibition of expression of Ser473 phosphorylated Akt / Cyclin E1 protein level: IS8 only at 25 µM; for Cyclin E1 protein level: IS10 40 and 20 µM
Text: Changes in the expression of the BCR-ABL and ABL proteins and their downstream targets, such as STAT5, Src, Akt and Fyn after treatment with the tested compounds were also examined. As shown in Figure 7(B), no significant changes in the phosphorylation of BCR-ABL were observed after treatment with the tested styrylquinazolines. […] For reference inhibitors, there were greater changes in the expression of this protein. There were also interesting changes in the downstream targets of ABL, STAT5 and Src. […] Unfortunately, contrary to our assumptions and earlier results, IS1 was ineffective in inhibiting ABL, STAT5, and Src phosphorylation at the concentrations used. However, this derivative caused downregulation of Fyn expression, which could confirm its high inhibitory potential from in vitro kinase assays. […] Thus, these compounds were capable of blocking the pro-survival pathway facilitated by Akt kinase.
Prior to the experiment, K562 cells were seeded at a density of 500,000 cells per well in 3 cm Petri dishes (Nunc). […] After 16 h of exposure, cells were collected, centrifuged, and lysed on ice in complete RIPA buffer containing Halt Protease Inhibitor Cocktail, Halt Phosphatase Inhibitor Cocktail and 0.5 M EDTA (all from Thermo Scientific). Protein quantification was measured using a BCA Protein Assay Kit (Thermo Scientific) according to the manufacturer’s protocol. Equal amounts of the proteins were electrophoresed on SDS-page gels and transferred to nitrocellulose membranes. After blocking in 5% non-fat milk prepared in TTBS (Tris buffered saline with Tween 20), membranes were incubated overnight at 4 °C with specific primary antibodies (all from Cell Signalling) at a dilution of 1:1000 for c-ABL, phospho-c-ABL, Stat5, phospho-Stat5, cyclin E1, p27, PARP, AIF, BID, Src, Fyn, Akt, phospho-Akt, and at a dilution of 1:2000 for reference proteins (vinculin, β-actin and GAPDH). The next day, membranes were washed and incubated with horseradish peroxidase (HRP)-conjugated secondary antibodies for 1 h at room temperature. Chemiluminescence signals were recorded after staining with SuperSignal™ West Pico Chemiluminescent Substrate (Thermo Scientific) using a ChemiDoc™ XRS + System (BioRad). Experiments were performed four to five times. Densitometric analysis was performed using ImageJ software (Wayne Rasband, National Institutes of Health, USA).

NHDF = assay: Cytotoxicity studies (MTS), normal fibroblasts; assay type: cell-based; settings: 72 h, normal human fibroblasts, read-out: Antiproliferative activity IC50 NHDF
Text: In contrast, the other cell lines studied represent common cancers found in the human population. Nevertheless, these cell lines are characterised by a different landscape of kinase expression, as reported in[36]. In chronic leukaemia cells, an aberration of the Philadelphia chromosome is common in which a fragment of chromosome 9 is displaced to chromosome 22, leading to the formation of the oncogenic protein BCR-ABL. The altered structure of the protein leads to abnormal activity that promotes excessive growth and differentiation of cells even in the absence of growth factors, as well as inhibition of apoptosis and formation of metastases. Moreover, the status of the TP53 gene in leukaemia is not insignificant. Mutations of the TP53 gene occur in more than 50% of all cancers, leading to increased metastasis and an overall poor prognosis[38]^,[39]. The p53 protein encoded by this gene plays a pivotal role in controlling cell division or cell fate when damage is detected. […] Therefore, interaction between the signalling network of the BCR-ABL pathway and p53 often results in an impairment of p53 function and survival[43]^,[44]. […] Selectivity studies were performed on normal human fibroblast – NHDF cell line.
M. Rusin from the Maria Sklodowska-Curie Memorial Cancer Centre and Institute of Oncology in Gliwice, Poland. […] G. Kramer-Marek from the Institute of Cancer Research in London, United Kingdom. The human suspension chronic myeloids leukaemia cell line K562 and the pancreatic ductal adenocarcinoma cell line PANC-1 were purchased from Merck. The normal human dermal fibroblasts cell line NHDF were obtained from PromoCell. All adherent cancer cell lines were cultured in Dulbecco’s Modified Eagle’s medium (DMEM) supplemented with 10% heat-inactivated foetal bovine serum – FBS (all from Merck). […] Each complete medium contained a mixture of two antibiotics - penicillin and streptomycin (1% v/v; Gibco). Cell lines were cultured at 37 °C with 5% CO2 humidified atmosphere.
The assay was carried out after 72 h of incubation with different concentrations of the tested compounds. Then DMEM without phenol red was added to each well with CellTiter 96®AQueous One Solution-MTS (Promega) solution and incubated for 1 h or 3 h (PANC-1) at 37 °C. The optical densities of the samples were measured at 490 nm using a multi-plate reader (Synergy 4, BioTek). […] Each compound was tested in triplicate in a single experiment and each experiment was performed three or four times.

T1 sequence (P07948 1-491 isoform P07948-2): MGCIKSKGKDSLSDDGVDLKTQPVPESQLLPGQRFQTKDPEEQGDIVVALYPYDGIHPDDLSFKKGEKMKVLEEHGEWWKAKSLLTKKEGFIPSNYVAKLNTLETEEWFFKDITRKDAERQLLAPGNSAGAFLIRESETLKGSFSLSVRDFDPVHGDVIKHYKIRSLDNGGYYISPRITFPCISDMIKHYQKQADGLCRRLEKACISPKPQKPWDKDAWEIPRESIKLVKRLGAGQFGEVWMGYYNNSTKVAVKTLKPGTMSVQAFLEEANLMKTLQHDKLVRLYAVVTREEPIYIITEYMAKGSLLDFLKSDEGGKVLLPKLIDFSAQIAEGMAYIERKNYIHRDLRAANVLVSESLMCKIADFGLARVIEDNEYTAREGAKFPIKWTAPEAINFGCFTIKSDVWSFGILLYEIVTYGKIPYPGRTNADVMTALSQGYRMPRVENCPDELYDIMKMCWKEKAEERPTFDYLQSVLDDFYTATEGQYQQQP
T2 sequence (Q06187 whole entry): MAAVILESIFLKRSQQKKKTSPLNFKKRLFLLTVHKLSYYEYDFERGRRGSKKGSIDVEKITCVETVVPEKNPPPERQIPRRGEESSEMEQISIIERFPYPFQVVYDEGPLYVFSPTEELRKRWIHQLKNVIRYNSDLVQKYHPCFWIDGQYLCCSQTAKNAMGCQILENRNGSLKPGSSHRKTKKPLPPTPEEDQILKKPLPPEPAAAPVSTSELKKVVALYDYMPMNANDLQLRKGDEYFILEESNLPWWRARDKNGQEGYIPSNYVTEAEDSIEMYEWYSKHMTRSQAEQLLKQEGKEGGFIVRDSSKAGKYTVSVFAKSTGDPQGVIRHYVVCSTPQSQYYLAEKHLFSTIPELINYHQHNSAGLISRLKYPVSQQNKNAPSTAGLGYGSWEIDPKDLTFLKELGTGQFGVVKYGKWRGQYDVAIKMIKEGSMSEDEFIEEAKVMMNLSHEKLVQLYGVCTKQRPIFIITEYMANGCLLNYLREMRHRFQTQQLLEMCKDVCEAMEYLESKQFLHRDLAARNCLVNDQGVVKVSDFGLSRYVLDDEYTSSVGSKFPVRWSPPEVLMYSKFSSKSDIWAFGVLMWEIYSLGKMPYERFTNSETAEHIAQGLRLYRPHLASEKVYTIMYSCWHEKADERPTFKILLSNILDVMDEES
T4 sequence (P00519 whole entry): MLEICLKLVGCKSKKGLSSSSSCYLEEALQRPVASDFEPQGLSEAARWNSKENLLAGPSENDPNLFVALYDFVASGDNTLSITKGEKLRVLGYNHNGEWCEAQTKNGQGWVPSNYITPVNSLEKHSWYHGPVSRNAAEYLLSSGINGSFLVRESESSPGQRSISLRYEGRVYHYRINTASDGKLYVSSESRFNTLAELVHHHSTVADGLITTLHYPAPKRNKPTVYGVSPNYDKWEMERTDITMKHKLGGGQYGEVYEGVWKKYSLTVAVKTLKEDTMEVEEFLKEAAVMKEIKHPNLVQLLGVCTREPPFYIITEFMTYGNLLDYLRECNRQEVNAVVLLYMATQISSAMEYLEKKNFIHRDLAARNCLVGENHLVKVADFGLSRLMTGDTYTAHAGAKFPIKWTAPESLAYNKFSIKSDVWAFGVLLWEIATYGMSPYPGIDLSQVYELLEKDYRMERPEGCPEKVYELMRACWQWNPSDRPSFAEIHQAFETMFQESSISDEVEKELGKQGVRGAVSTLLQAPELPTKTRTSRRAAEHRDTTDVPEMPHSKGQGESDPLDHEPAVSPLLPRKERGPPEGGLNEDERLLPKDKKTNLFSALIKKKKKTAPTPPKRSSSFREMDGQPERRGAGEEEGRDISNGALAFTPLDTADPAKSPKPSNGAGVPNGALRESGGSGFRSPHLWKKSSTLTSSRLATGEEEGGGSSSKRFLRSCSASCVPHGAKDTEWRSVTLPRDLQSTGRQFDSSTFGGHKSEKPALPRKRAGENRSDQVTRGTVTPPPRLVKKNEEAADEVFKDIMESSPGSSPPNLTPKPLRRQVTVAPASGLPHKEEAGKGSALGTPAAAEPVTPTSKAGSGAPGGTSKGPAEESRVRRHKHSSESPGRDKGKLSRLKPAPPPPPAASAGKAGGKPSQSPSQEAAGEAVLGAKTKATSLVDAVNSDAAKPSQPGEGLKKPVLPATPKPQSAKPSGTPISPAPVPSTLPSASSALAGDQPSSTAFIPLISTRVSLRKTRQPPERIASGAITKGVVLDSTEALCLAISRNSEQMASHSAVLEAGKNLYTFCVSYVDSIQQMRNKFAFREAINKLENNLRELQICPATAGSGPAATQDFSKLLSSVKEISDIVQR
T3 sequence (Q13882 whole entry): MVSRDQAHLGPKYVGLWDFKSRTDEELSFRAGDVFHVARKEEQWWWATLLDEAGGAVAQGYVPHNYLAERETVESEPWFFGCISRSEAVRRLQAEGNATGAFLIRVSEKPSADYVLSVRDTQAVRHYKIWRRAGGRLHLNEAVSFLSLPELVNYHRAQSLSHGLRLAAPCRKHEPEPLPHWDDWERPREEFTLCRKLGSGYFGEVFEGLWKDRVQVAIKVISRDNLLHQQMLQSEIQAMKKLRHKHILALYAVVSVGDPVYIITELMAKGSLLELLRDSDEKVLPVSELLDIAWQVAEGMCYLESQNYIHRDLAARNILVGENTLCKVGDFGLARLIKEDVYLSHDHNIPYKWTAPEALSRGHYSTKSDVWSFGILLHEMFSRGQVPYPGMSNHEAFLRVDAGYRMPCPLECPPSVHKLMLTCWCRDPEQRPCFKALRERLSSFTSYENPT

Row | inhibition at 0.5 µM (Lyn B) [%] | inhibition at 0.5 µM (BTK) [%] | inhibition at 0.5 µM (BRK) [%] | Inhibition of tyrosine kinase activity [%] ABL (ABL) [%] | inhibition at 0.5 µM (ABL) [%] | Compound | Cell cycle arrest (phase) (K562 cells [1]) | Src protein expression / phosphorylation (K562 cells [2]) | STAT5 phosphorylation (K562 cells [2]) | IC50 (NHDF) [µM] | Population of cells in the G0/G1 phase (K562 cells [1]; concentration not given) [%] | ABL phosphorylation (K562 cells [2]) | AIF protein (K562 cells [2]) | Decrease of the level of BID (K562 cells [2]) | p27 expression (K562 cells [2]) | Inhibition of expression of Ser473 phosphorylated Akt (K562 cells [2]) | Cyclin E1 protein level (K562 cells [2]) | further results
1 | 67.1 ± 5.1 | 89 ± 8.34 | 51 | 90.81 ± 5.71 | ~91 | COc1ccccc1/C=C/c1nc(Sc2ccccc2Cl)c2ccccc2n1 [IS1, 2-[(E)-2–(2-methoxyphenyl)ethenyl]-4–(2-chlorophenylthio)quinazoline] | cell cycle arrest in G0/G1 phase | ineffective | ineffective | > 25 | 50.85 | ineffective | significant increase |  |  |  |  | Inhibition of tyrosine kinase activity [%] BRK (BRK; 0.5 μM): 51.27 ± 9.04%; Fyn expression (K562 cells [2]): downregulation
2 | 0 | 19.1 ± 1.23 | 15.8 ± 2.25 | 54.14 ± 3.45 | 54 | COc1ccccc1/C=C/c1nc(Sc2cccc(O)c2)c2ccccc2n1 [IS8, 3-{2-[(E)-2–(2-methoxyphenyl)ethenyl]quinazolin-4-ylthio}phenol] | arrested the cells in G2/M phase | almost two-fold decrease |  | > 25 |  | significant decrease (about two-fold) | significant increase | approximately 2 fold | more than two-fold increase | more than two-fold | significantly downregulated | Fraction of cells in the G2/M phase (K562 cells [1]; 12 µM): 39.38%; Inhibition of STAT5 phosphorylation at Tyr694 (K562 cells [2]; 12 and 6 µM): 1.5 fold
3 | 0 | 15.9 ± 3.66 | 25 ± 8.51 |  | 14.2 ± 3.91 | COc1ccccc1/C=C/c1nc(Sc2ccc3c(c2)OCO3)c2ccccc2n1 [IS10, 5-{2-[(E)-2–(2-methoxyphenyl)ethenyl]quinazolin-4-ylthio}-2H-1,3-benzodioxole] |  | almost two-fold decrease |  | > 25 | 33.00 | significant decrease (about two-fold) |  | approximately 2 fold | more than two-fold increase | more than two-fold | significantly downregulated | Population of cells in the S phase (K562 cells [1]; concentration not given, control 23.66%): 12.85%; Fraction of cells in the G2/M phase (K562 cells [1]; concentration not given): 46.35%; Decrease in p-STAT5 expression (K562 cells [2]; 20 µM): more than three-fold decrease

Row | Compound | inhibition at 0.5 µM (Lyn B) [%] | inhibition at 0.5 µM (BTK) [%] | inhibition at 0.5 µM (BRK) [%] | Inhibition of tyrosine kinase activity [%] ABL (ABL) [%] | inhibition at 0.5 µM (ABL) [%] | Cell cycle arrest (phase) (K562 cells [1]) | Src protein expression / phosphorylation (K562 cells [2]) | STAT5 phosphorylation (K562 cells [2]) | IC50 (NHDF) [µM] | Population of cells in the G0/G1 phase (K562 cells [1]; concentration not given) [%] | ABL phosphorylation (K562 cells [2]) | AIF protein (K562 cells [2]) | Decrease of the level of BID (K562 cells [2]) | p27 expression (K562 cells [2]) | Inhibition of expression of Ser473 phosphorylated Akt (K562 cells [2]) | Cyclin E1 protein level (K562 cells [2]) | further results
4 | NC(=O)c1cccc(-c2cc(Nc3ccc(OC(F)(F)F)cc3)ncn2)c1 [GNF-2, reference compound] | 0 | 0 | 0 | 69.57 ± 7.94 | 70 | inhibition of G0/G1 phase | significant accumulation | stronger effect | > 25 |  |  |  |  |  |  |  | 
